# Measurements as given in ChEMBL document CHEMBL1201862, “PubChem BioAssay data set” (2004).
#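 Assay format: 96-well plates, 48-hour exposure. GI50 marks 50% less growth.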 The source made the active and inactive calls. No stated cut-off is given here; in the data, active = GI50 up to about 1.1 µM and inactive = higher.
# Key:
# Test in all cases: NCI anticancer screen, dose series, 48 h
# M14 = system: M14
# DMS-273 = system: DMS-273
# DMS-114 = system: DMS-114
# NCI-H460 = system: NCI-H460
# SNB-75 = system: SNB-75
# CAKI-1 = system: CAKI-1
# SR = system: SR
# A498 = system: A498
# K562 = system: K562
# ACHN = system: ACHN
# 786-0 = system: 786-0
# HCC 2998 = system: HCC 2998
# COLO 205 = system: COLO 205
# HCT-116 = system: HCT-116
# SF-539 = system: SF-539
# XF498 = system: XF498
# OVCAR-5 = system: OVCAR-5
# LXFL 529 = system: LXFL 529
# SW-620 = system: SW-620
# SK-OV-3 = system: SK-OV-3
# SK-MEL-28 = system: SK-MEL-28
# HT-29 = system: HT-29
# SNB-78 = system: SNB-78
# RPMI-8226 = system: RPMI-8226
# UO-31 = system: UO-31
# NCI-H226 = system: NCI-H226
# SNB-19 = system: SNB-19
# RXF 393 = system: RXF 393
# M19-MEL = system: M19-MEL
# DLD-1 = system: DLD-1
# MOLT-4 = system: MOLT-4
# OVCAR-4 = system: OVCAR-4
# OVCAR-8 = system: OVCAR-8
# A549 = system: A549
# NCI-H522 = system: NCI-H522
# SF-295 = system: SF-295
# HL-60 = system: HL-60
# KM-20L2 = system: KM-20L2
# KM12 = system: KM12
# SN12C = system: SN12C
# SK-MEL-2 = system: SK-MEL-2
# Malme-3M = system: Malme-3M
# IGROV-1 = system: IGROV-1
# OVCAR-3 = system: OVCAR-3
# LOX IMVI = system: LOX IMVI
# HOP-62 = system: HOP-62
# HCT-15 = system: HCT-15
# EKVX = system: EKVX
# CCRF-CEM = system: CCRF-CEM
# U-251 = system: U-251
# SF-268 = system: SF-268
# NCI-H23 = system: NCI-H23
# HOP-92 = system: HOP-92
# UACC-257 = system: UACC-257
# TK-10 = system: TK-10
# HOP-18 = system: HOP-18
# SK-MEL-5 = system: SK-MEL-5
# UACC-62 = system: UACC-62
structure (smiles),measurement,setting,value
COc1cc([C@@H]2OCC3C(c4ccc5c(c4)OCO5)OCC32)cc(OC)c1OC (stereo partly specified),GI50,M14,> 100 µM (inactive)
same,GI50,DMS-273,76.4 µM (inactive)
same,GI50,DMS-114,35.5 µM (inactive)
same,GI50,NCI-H460,> 100 µM (inactive)
same,GI50,SNB-75,4.33 µM (inactive)
same,GI50,CAKI-1,> 100 µM (inactive)
same,GI50,SR,91.6 µM (inactive)
same,GI50,A498,> 100 µM (inactive)
same,GI50,K562,54.1 µM (inactive)
same,GI50,ACHN,> 100 µM (inactive)
same,GI50,786-0,> 100 µM (inactive)
same,GI50,HCC 2998,> 100 µM (inactive)
same,GI50,COLO 205,> 100 µM (inactive)
same,GI50,HCT-116,66.7 µM (inactive)
same,GI50,SF-539,> 100 µM (inactive)
same,GI50,XF498,52.6 µM (inactive)
same,GI50,OVCAR-5,> 100 µM (inactive)
same,GI50,LXFL 529,43.1 µM (inactive)
same,GI50,SW-620,> 100 µM (inactive)
same,GI50,SK-OV-3,> 100 µM (inactive)
same,GI50,SK-MEL-28,> 100 µM (inactive)
same,GI50,HT-29,> 100 µM (inactive)
same,GI50,SNB-78,> 100 µM (inactive)
same,GI50,RPMI-8226,98.9 µM (inactive)
same,GI50,UO-31,> 100 µM (inactive)
same,GI50,NCI-H226,41.3 µM (inactive)
same,GI50,SNB-19,47.8 µM (inactive)
same,GI50,RXF 393,> 100 µM (inactive)
same,GI50,M19-MEL,> 100 µM (inactive)
same,GI50,DLD-1,> 100 µM (inactive)
same,GI50,MOLT-4,45.5 µM (inactive)
same,GI50,OVCAR-4,> 100 µM (inactive)
same,GI50,OVCAR-8,81.7 µM (inactive)
same,GI50,A549,71.3 µM (inactive)
same,GI50,NCI-H522,49.9 µM (inactive)
same,GI50,SF-295,> 100 µM (inactive)
same,GI50,HL-60,> 100 µM (inactive)
same,GI50,KM-20L2,> 100 µM (inactive)
same,GI50,KM12,> 100 µM (inactive)
same,GI50,SN12C,> 100 µM (inactive)
same,GI50,SK-MEL-2,> 100 µM (inactive)
same,GI50,Malme-3M,> 100 µM (inactive)
same,GI50,IGROV-1,> 100 µM (inactive)
same,GI50,OVCAR-3,> 100 µM (inactive)
same,GI50,LOX IMVI,> 100 µM (inactive)
same,GI50,HOP-62,> 100 µM (inactive)
same,GI50,HCT-15,> 100 µM
same,GI50,EKVX,47.1 µM (inactive)
same,GI50,CCRF-CEM,> 100 µM (inactive)
same,GI50,U-251,> 100 µM (inactive)
same,GI50,SF-268,> 100 µM (inactive)
same,GI50,NCI-H23,43.4 µM (inactive)
same,GI50,HOP-92,8.97 µM (inactive)
CCCCNC1=C(C(=O)OCC)C(=O)CO1,GI50,M14,> 100 µM (inactive)
same,GI50,DMS-273,> 100 µM (inactive)
same,GI50,DMS-114,> 100 µM (inactive)
same,GI50,NCI-H460,> 100 µM (inactive)
same,GI50,SNB-75,80.2 µM (inactive)
same,GI50,UACC-257,> 100 µM (inactive)
same,GI50,CAKI-1,> 100 µM (inactive)
same,GI50,K562,> 100 µM (inactive)
same,GI50,ACHN,> 100 µM (inactive)
same,GI50,786-0,> 100 µM (inactive)
same,GI50,HCC 2998,> 100 µM (inactive)
same,GI50,COLO 205,> 100 µM (inactive)
same,GI50,TK-10,> 100 µM (inactive)
same,GI50,SF-539,> 100 µM (inactive)
same,GI50,XF498,> 100 µM (inactive)
same,GI50,OVCAR-5,> 100 µM (inactive)
same,GI50,LXFL 529,> 100 µM (inactive)
same,GI50,SW-620,> 100 µM (inactive)
same,GI50,SK-OV-3,> 100 µM (inactive)
same,GI50,SK-MEL-28,> 100 µM (inactive)
same,GI50,HT-29,> 100 µM (inactive)
same,GI50,HOP-18,> 100 µM (inactive)
same,GI50,RPMI-8226,> 100 µM (inactive)
same,GI50,UO-31,> 100 µM (inactive)
same,GI50,NCI-H226,> 100 µM (inactive)
same,GI50,SNB-19,> 100 µM (inactive)
same,GI50,RXF 393,> 100 µM (inactive)
same,GI50,M19-MEL,> 100 µM (inactive)
same,GI50,DLD-1,> 100 µM (inactive)
same,GI50,MOLT-4,> 100 µM (inactive)
same,GI50,OVCAR-4,> 100 µM (inactive)
same,GI50,OVCAR-8,> 100 µM (inactive)
same,GI50,A549,> 100 µM (inactive)
same,GI50,NCI-H522,> 100 µM (inactive)
same,GI50,SF-295,> 100 µM (inactive)
same,GI50,HL-60,> 100 µM (inactive)
same,GI50,KM-20L2,> 100 µM (inactive)
same,GI50,SK-MEL-5,> 100 µM (inactive)
same,GI50,KM12,> 100 µM (inactive)
same,GI50,SN12C,> 100 µM (inactive)
same,GI50,SK-MEL-2,> 100 µM (inactive)
same,GI50,Malme-3M,> 100 µM (inactive)
same,GI50,IGROV-1,> 100 µM (inactive)
same,GI50,UACC-62,> 100 µM (inactive)
same,GI50,OVCAR-3,> 100 µM (inactive)
same,GI50,LOX IMVI,> 100 µM (inactive)
same,GI50,HOP-62,> 100 µM (inactive)
same,GI50,HCT-15,> 100 µM
same,GI50,EKVX,> 100 µM (inactive)
same,GI50,CCRF-CEM,> 100 µM (inactive)
same,GI50,U-251,> 100 µM (inactive)
same,GI50,SF-268,> 100 µM (inactive)
same,GI50,NCI-H23,> 100 µM (inactive)
